Test results from US10052326B1, “Antihepatotoxic agents” (KING SAUD UNIVERSITY, priority 2017, dated 2018).

Assays:
[1] = tested on: CCl4-induced hepatotoxicity in hepatocytes of rats; assay: Histopathological evaluation of liver of CCl4-intoxicated rats; type: in vivo, Wistar albino rats; details: light micrographs, hematoxylin and eosin
Procedure: Animals and study design: Wistar albino rats (180-200 g) were obtained from the Experimental Animal Care Center of the College of Pharmacy, King Saud University, Riyadh. Animals were maintained on standard chow diet and housed in polycarbonate cages in a room free from any source of chemical contamination, artificially illuminated (12 h dark/light cycle) and thermally controlled (25±2° C.) at the animal facility. All animals received humane care in compliance with the guidelines of the Ethics Committee of the Experimental Animal Care Society, College of Pharmacy, King Saud University, Riyadh, Saudi Arabia. After a one-week acclimatization period, animals were randomly allocated into 5 groups and treated as follows: group (1), untreated control; and groups 2, 3, 4, and 5 received 0.25 mL of CCl4 in liquid paraffin (1:1) 1.25 mL/kg body weight intraperitoneally (IP). Group 2 was administered only CCl4. Groups 3 and 4 received DHBP-2 (10 mg/kg) and (20 mg/kg/day) orally for 2 weeks, respectively. Rats in group 5 were treated with (10 mg/kg) orally with silymarin for similar days. The blood was collected by cardiac puncture after 24 hours following the administration of CCl4, allowed to clot, and the serum was then separated. After collecting the blood, the animals were sacrificed using ether anesthesia. […]

[2] = tested on: CCl4-induced hepatotoxicity; assay: Serum lipid profile in CCl4-intoxicated rats; type: in vivo, Wistar albino rats; details: 20 mg/kg, two week pretreatment before CCl4
Procedure: (§1) Animals and study design: Wistar albino rats (180-200 g) were obtained from the Experimental Animal Care Center of the College of Pharmacy, King Saud University, Riyadh. Animals were maintained on standard chow diet and housed in polycarbonate cages in a room free from any source of chemical contamination, artificially illuminated (12 h dark/light cycle) and thermally controlled (25±2° C.) at the animal facility. All animals received humane care in compliance with the guidelines of the Ethics Committee of the Experimental Animal Care Society, College of Pharmacy, King Saud University, Riyadh, Saudi Arabia. After a one-week acclimatization period, animals were randomly allocated into 5 groups and treated as follows: group (1), untreated control; and groups 2, 3, 4, and 5 received 0.25 mL of CCl4 in liquid paraffin (1:1) 1.25 mL/kg body weight intraperitoneally (IP). Group 2 was administered only CCl4. Groups 3 and 4 received DHBP-2 (10 mg/kg) and (20 mg/kg/day) orally for 2 weeks, respectively. Rats in group 5 were treated with (10 mg/kg) orally with silymarin for similar days. The blood was collected by cardiac puncture after 24 hours following the administration of CCl4, allowed to clot, and the serum was then separated. After collecting the blood, the animals were sacrificed using ether anesthesia. The rat livers were dissected out and used for biochemical estimations and histological assessment.

mice = assay: Acute toxicity test, oral administration; type: in vivo; details: in 0.5% CMC, observation up to 14 days
Procedure: Acute toxicity test: The acute toxicity test was performed on mice, for oral administration. DHPB-2 was dissolved in 0.5% CMC (carboxymethylcellulose) in water and administered at various doses, ranging from ([…]), to different groups of mice. The animals were observed continuously for 1 h and then at half hourly intervals for 4 h on the first day for clinical signs and symptoms of toxicity, and further up to 72 h followed by 14 days, for any mortality.

[3] = tested on: CCl4-induced hepatotoxicity; assay: Determination of malondialdehyde (MDA) in liver tissue of CCl4-intoxicated rats; type: in vivo, Wistar albino rats
Procedure: as §1
Determination of malondialdehyde (MDA): The method reported by (Utley H. C. et al., Archives of Biochemistry Biophysics, 1967, 260, 521-531) was followed. Briefly, the liver tissues were removed, and tissue was homogenized in 0.15 M KCl (at 4° C.; Potter-Elvehjem type C homogenizer) to give a 10% w/v homogenate. The absorbance of the solution was then read at 532 nm. The content of malondialdehyde (nmol/g wet tissue) was then calculated, by reference to a standard curve of malondialdehyde solution.

[4] = tested on: CCl4-induced hepatotoxicity; assay: Estimation of hepatic non-protein sulfhydryls (NP-SH) in CCl4-intoxicated rats; type: in vivo, Wistar albino rats; details: liver tissue; for NP-SH: n = 6, mean
Procedure: as §1
Estimation of non-protein sulfhydryls (NP-SH): Hepatic non-protein sulfhydryls were measured according to the method of Sedlak and Lindsay et. al., Analytical Biochemistry C, 1968, 25, 192-205. The livers were homogenized in ice-cold 0.02 mmol/L ethylenediaminetetraacetic acid (EDTA). The absorbance was measured within 5 min. of addition of 5,5′-dithio-bis(2-nitrobenzoic acid) (DTNB) at 412 nm against a reagent blank.

[5] = tested on: CCl4-induced hepatotoxicity; assay: Determination of total protein (TP) in CCl4-intoxicated rats; type: in vivo, Wistar albino rats; details: liver tissue; for Total Protein: n = 6, mean
Procedure: as §1
Determination of total protein (TP): Total protein was estimated by the kit method, supplied by Crescent Diagnostics, Jeddah, Saudi Arabia. The absorbance of this complex at 546 nm is proportional to the protein concentration. […]

[6] = tested on: CCl4-induced hepatotoxicity; assay: Estimation of serum marker enzymes and bilirubin in CCl4-intoxicated rats; type: in vivo, Wistar albino rats; details: 20 mg/kg orally for 2 weeks before CCl4, vs CCl4 group
Procedure: as §1
Estimation of marker enzymes: Serum glutamate oxaloacetate transaminase (SGOT/AST), serum glutamate pyruvate transaminase (SGPT/ALT) (Reitman S. A. et al., Am. J. Clin. Pathol. 1957, 28 (1), 56-63), alkaline phosphatase (ALP), gamma-glutamyl transferase (GGT) and bilirubin were determined using Reflotron Plus Analyzer and Roche kits (Roche Diagnostics GmbH, Mannheim, Germany) (King E. J. et al., Practical Clinical Biochemistry, H. Varley, Ed., CBS publishers, New Delhi, India, 1988).

O=C1NC=C(C(=O)c2ccc3c(c2)OCCO3)C(c2ccc([N+](=O)[O-])cc2)N1 (centres unmarked) [DHPB-2, 4-(4-Nitrophenyl)-5-(2,3-dihydro-1,4-benzodioxin-6-ylcarbonyl)-3,4-dihydro-pyrimidin2(1H)-one]
histopathological assessment of the liver ([1]; 10 mg/kg/day oral pretreatment): marked improvement in liver parenchyma | histopathological assessment of the liver ([1]; 20 mg/kg/day oral pretreatment): marked improvement in liver parenchyma | HDL cholesterol level [2]: significantly improved | LDL cholesterol level [2]: significantly reduced | VLDL cholesterol level [2]: significantly reduced | cholesterol level [2]: significantly reduced | triglycerides level [2]: significantly reduced | dose up to which no toxicity symptoms and no morbidity were observed (mice): up to 500 mg/kg | level of MDA (in words) ([3]; 20 mg/kg, vs CCl4 group): significant reduction | MDA ([3]; dose 10 mg/kg + CCl4, n = 6, mean): 6.84 nmol/g | MDA ([3]; dose 20 mg/kg + CCl4, n = 6, mean): 1.59 nmol/g | NP-SH level (in words) ([4]; 20 mg/kg, vs CCl4 group): significantly enhanced | NP-SH ([4]; dose 10 mg/kg + CCl4): 4.30 nmol/g | NP-SH ([4]; dose 20 mg/kg + CCl4): 6.16 nmol/g | TP level (in words) ([5]; 20 mg/kg, vs CCl4 group): significantly enhanced | Total Protein ([5]; dose 10 mg/kg + CCl4): 38.11 g/L | Total Protein ([5]; dose 20 mg/kg + CCl4): 74.03 g/L | ALP level [6]: significant decrease | ALT level [6]: significant decrease | AST level [6]: significant decrease | GGT level [6]: significant decrease | bilirubin level [6]: significant decrease

CCOc1ccc(C2NC(=O)NC=C2C(=O)c2ccc3c(c2)OCCO3)cc1 (centres unmarked) [DHPB-6, 4-(4-Ethoxyphenyl)-5-(2,3-dihydro-1,4-benzodioxin-6-ylcarbonyl)-3,4-dihydro-pyrimidin-2(1H)-one]
melting point: 210 to 212 °C
